Test results as given in US12642786B2, “Methods, compositions and kits for treating multiple sclerosis and other disorders” (The Johns Hopkins University, priority 2018, dated 2026).
Entries after “also recorded” stand apart in the source; their conditions may differ.

What was measured:
[1] = test system: corpus callosum, LPC demyelination; assay: Lysolecithin (LPC)-induced demyelination, MBP staining; type: in vivo, C57BL/6J mice; conditions: 30 μg/kg IP at 3, 5, 7 and 9 dpl, assessed at 10 dpl
Description: To evaluate the impact of systemic treatment with bryo-1 on physiologic demyelination in vivo, we conducted a lysolecithin (LPC)-induced demyelination animal study. LPC was stereotactically injected into the corpus callosum of 12-week old C57BL/6J mice. Bryo-1 (30 μg/kg) or vehicle was injected IP at 3, 5, 7, and 9 dpl followed by immunofluorescent assessment of MBP expression at 10 dpl.

[2] = test system: EAE (MOG35-55 immunized mice); assay: EAE, treatment initiated at clinical score of 1.0, clinical scoring; type: in vivo, C57BL/6J mice
Description: (§1) Active EAE was induced in 8-12 wk-old female C57BL/6J mice that had been allowed to acclimatize to the animal facility for at least 1 wk. MOG35-55 peptide dissolved in PBS at a concentration of 2 mg/mL was mixed 1:1 with complete Freund's adjuvant to make an emulsion. On day 0, mice were immunized by injecting 50 μL of the emulsion s.c. into each of two sites on the lateral abdomen. In addition, on day 0 and again on day 2, mice were injected intraperitoneally with 250 ng pertussis toxin. Mice were weighed and scored beginning on day 7 post-immunization. Scoring was performed in a blinded manner according to the following scale:
(§2) Bryo-1 was prepared by initially dissolving in 100% ethanol and then further diluting to 20% ethanol and 1% DMSO in PBS. The final concentration of bryo-1 was […] Mice were treated by i.p. injection of […] bryo-1 or an equal volume of vehicle control (20% ethanol and 1% DMSO in PBS) 3 d per week (Monday, Wednesday, Friday).
In a second set of experiments, mice were randomized and treatment was begun when the mice reached a clinical score of 1.0 (corresponding to tail paralysis). In this paradigm, mice received their first treatment on the day they reached a score of 1.0, and subsequently were returned to a 3 d/week schedule in sync with the other animals.
The effects of bryo-1 in two distinct therapeutic paradigms were analyzed. In both paradigms, treatments began after the onset of EAE, but the start of the treatments occurred at two different stages of the disease. In the first set of experiments, mice were randomized and treatment was initiated at the first clinical sign of motor weakness, corresponding to tail paralysis (FIG. 2A).

[3] = test system: mixed glial cultures (MGCs); assay: Mixed glial cultures, iNOS / Arg1 immunoblot; type: cell-based, C57BL/6J mice
Description: Mixed glial cultures (MGCs) obtained from the cerebral cortices of P1-P3 neonatal C57BL/6J mice were used, prepared as described by Saura et al., Glia (2003) 44:183-189. Mixed glial cultures were treated with LPS (FIG. 6A) or IL4 (FIG. 6B) ±vehicle or the indicated dose of bryo-1. Expression of iNOS or Argl, respectively, was assessed by immunoblot. Images are representative of 3 independent experiments.

[4] = test system: LPS-stimulated BMDCs; assay: BMDC cytokine secretion by ELISA; type: cell-based, C57BL/6J mice
Description: BMDCs were generated as described in Lutz, “An advanced culture method for generating large quantities of highly pure dendritic cells from mouse bone marrow,” 1999, J. Immunol. Methods 223:77-92, with minor modifications. Briefly, femurs were removed from 6-10-wk-old female C57BL/6J mice, cut on both ends, and marrow flushed with PBS. Bone marrow cells were then pelleted by centrifugation (500×g for 8 min), resuspended in red blood cell lysis buffer (Sigma) for 1 min, and quenched with excess PBS. After another centrifugation, cells were resuspended in complete RPMI (cRPMI) media consisting of RPMI-1640 with GlutaMAX™ supplement (Thermo Fisher Scientific) supplemented with 10% FBS, penicillin-streptomycin (Gibco), and 50 μM 2-mercaptoethanol (Sigma). On day 0, ˜2×10^6 cells were then seeded per 100-mm plate in 10 mL media containing 20 ng/mL rmGM-CSF (Peprotech). On day 3, an additional 10 mL fresh cRPMI media containing 20 ng/mL rmGM-CSF was added to each plate. On day 6, half the culture supernatant from each plate was removed and centrifuged, and the pelleted cells resuspended in 10 mL fresh cRPMI with 20 ng/mL rmGM-CSF and added back to the plates. On day 8, all nonadherent cells (representing the BMDC fraction) were collected, pelleted by centrifugation, resuspended in fresh cRPMI media with 20 ng/mL rmGM-CSF, and plated into 24-well dishes. These BMDCs were then treated overnight with or without LPS 100 ng/mL plus the indicated doses of bryo-1. The following day (day 9), these cells were then assayed by flow cytometry or cytokine ELISA.
After overnight treatment of BMDCs or mPMs with LPS 100 ng/mL±bryo-1, culture supernatants were collected and cytokine production was assayed using ELISA kits for IL-12 p70 (catalog #88-7121-22), IL-6 (catalog #88-7064-22), and IL-10 (catalog #88-7105-22) purchased from eBioscience, according to manufacturer's instructions. Plates were read at 450 nm on a tabletop plate reader.

[5] = test system: neurospheres; assay: Neurospheres, staining for oligodendrocyte marker; type: cell-based; conditions: 20 nM every other day for 1 week
Excerpt: We examined the effect of bryo-1 on neurospheres, which are neural stem cell-like cells.

[6] = test system: EAE (MOG35-55 immunized mice); assay: EAE, late treatment initiated at day 28 post-immunization, clinical scoring; type: in vivo, C57BL/6J mice
Description: as §1, §2
In a third set of experiments, mice were randomized and treatment was begun on day 28 post-immunization, more than 10 d after peak disease and once motor deficits had reached a stable plateau.
In another set of mice, to determine whether bryo-1 could reverse established neurologic deficits in EAE, mice were randomized and began treatment on day 28 post-immunization, more than 10 d after peak disease and once motor deficits had reached a stable plateau (FIG. 2C). […] Treatment was continued for just more than 3 wk and discontinued on day 51 post-immunization.

[7] = test system: corpus callosum remyelination; assay: Cuprizone-induced demyelination, Black-Gold II myelin staining; type: in vivo, C57BL/6J mice; conditions: 30 μg/kg IP every other day from re-feeding, day 8 after re-feeding
Description: Cuprizone-induced demyelination was elicited as described by Baxi et al., Glia (2017) 65:2087-098, with minor modification. Female C57BL/6J mice (8 weeks old) were fed 0.2% cuprizone for 5 weeks to induce demyelination of the corpus callosum and then returned to normal feed. The mice (n=2 per group) were then treated with either bryo-1 (30 μg/kg) or vehicle by IP injection every other day beginning on the first day of re-feeding with normal feed, and the extent of corpus callosum remyelination was assessed by Black-Gold II myelin staining on day 8 after re-feeding.

CCC/C=C/C=C/C(=O)OC1/C(=C/C(=O)OC)CC2CC(C(C)O)OC(=O)CC(O)CC3CC(OC(C)=O)C(C)(C)C(O)(CC4C/C(=C/C(=O)OC)CC(/C=C/C(C)(C)C1(O)O2)O4)O3 (stereo not shown) [bryo-1, Bryostatin-1]
rate of oligodendrogenesis (MBP staining) [1]: appears to have increased the rate of oligodendrogenesis | motor deficits and subsequent course of EAE ([2]; 30 μg/kg i.p. 3 d per week, started at first clinical sign (tail paralysis, score 1.0)): substantially attenuated | peak clinical score vs vehicle-treated mice ([2]; treatment started at score 1.0): lower peak clinical score | recovery vs vehicle-treated mice ([2]; treatment started at score 1.0): faster recovery | expression of Argl (M2 marker) ([3]; MGCs treated with IL4, dose as low as 1 nM): dramatically augmented expression | induction of iNOS (an M1 marker) by LPS ([3]; MGCs treated with LPS): blocked the induction | LPS-induced secretion of IL-12 ([4]; BMDCs, LPS 100 ng/mL, bryo-1 10 nM, overnight): abrogated | secretion of IL-10 ([4]; BMDCs, LPS 100 ng/mL, overnight): significantly augmented | concentration with direct anti-inflammatory effects on DCs and macrophages (as low as) ([4]; DCs and macrophages): 10 nM | expression of the oligodendrocyte marker 04 [5]: increased expression | clinical scores after discontinuation vs vehicle-treated group ([6]; after discontinuation at day 51, followed through day 71): remained significantly lower; also recorded: remained below those of vehicle-treated mice | clinical scores throughout the treatment period and for several days after discontinuation ([6]; treatment day 28 to day 51 post-immunization): steadily improved | time after discontinuing at which neurologic deficits worsened ([6]; treatment discontinued on day 51 post-immunization): approximately 1 wk | time to improvement after treatment initiation ([6]; treatment started day 28 post-immunization): within a week of treatment initiation | established motor deficits ([6]; treatment started day 28 post-immunization, 30 μg/kg i.p. 3 d per week): reversed motor deficits | rate of remyelination (extent of Black-Gold II staining) [7]: increased the rate of remyelination
